Here are results for one molecule from patent US10442813B2, “Polymorphs of rucaparib camsylate and methods of making same” (RK Pharma Solutions LLC, priority 2018, dated 2019).

The data set can be described thus: Solubility of rucaparib camsylate Form beta in USP standard buffers adjusted to different pHs, 37° C. It is filed as physicochemical. Here is the method: The solubility of rucaparib camsylate Form beta was investigated in USP standard buffers adjusted to different pHs. For pH 1.2, the buffer solution included 3.73 g of potassium chloride dissolved in 100 ml of water which was mixed with […] of 0.2 M hydrochloric acid. Water was added to bring the volume to 1000 ml. For pH 4.5, the buffer solution included 2.99 g of sodium acetate dissolved in 100 ml of water which was mixed with 14 ml of 2 N acetic acid. Water was added to bring the volume to 1000 ml. For pH 6.0, the buffer preparation included 6.80 g of potassium phosphate dissolved in 100 ml of water which was mixed with 28 ml of 0.2 M sodium hydroxide. Water was added to bring the volume to 1000 ml. For pH 6.8, the buffer preparation included 6.80 g of potassium phosphate dissolved in 100 ml of water, which was mixed with 112 ml of 0.2 M sodium hydroxide. Water was added to volume of 1000 ml. For pH 8.0, the buffer preparation included 3.09 of boric acid and 3.73 g of potassium chloride dissolved in 100 ml of water, which was mixed with 19.5 ml of 0.2 sodium hydroxide. Water was added to bring volume to 1000 ml.

Structures are written as SMILES. Counter-ions that a name gives are not always drawn. Like-named read-outs stand apart in the source and are kept apart here.

Broadly, the solubility is the dissolved amount per volume that the medium holds.

In the case of `CNCc1ccc(-c2[nH]c3cc(F)cc4c3c2CCNC4=O)cc1` [Rucaparib Form beta, 8-fluoro-2-{4-[(methylamino)methyl]phenyl}-1,3,4,5-tetrahydro-6H-azepino[5,4,3-cd]indol-6-one ((1S,4R)-7,7dimethyl-2-oxobicyclo[2.2.1]hept-1-yl)methanesulfonic acid salt], the solubility entry was “Very slightly soluble” (USP buffer pH 8.0, 37° C.); “slightly soluble” (USP buffer pH 8.0, 37° C., listed as rucaparib camsylate Form beta); below 100 µg/mL (USP standard buffer pH 1.2, simulated gastric fluid, thermodynamic from solid, USP buffer pH 1.2, 37° C., read-out: Solubility); below 100 µg/mL (USP standard buffer pH 4.5, aqueous buffer, thermodynamic from solid, USP buffer pH 4.5, 37° C., read-out: Solubility); below 100 µg/mL (USP standard buffer pH 6.0, aqueous buffer, thermodynamic from solid, USP buffer pH 6.0, 37° C., read-out: Solubility); below 100 µg/mL (USP standard buffer pH 6.8, aqueous buffer, thermodynamic from solid, USP buffer pH 6.8, 37° C., read-out: Solubility). Further, the solubility result was “practically insoluble” (most pH values (all tested except pH 8)) and below 100 µg/mL (thermodynamic from solid, Water, 37° C., read-out: Solubility).
